Measurements taken from PubChem BioAssay AID2060909 (Molecular Pharmacology Branch, DTP, NCI, 2025).

Test system: 362531-283-R-J2-PDC complex spheroid viability
Assay: Anticancer human tumor 362531-283-R-J2-PDC patient-derived colon adenocarcinoma cell line growth inhibition [RAS]
Conditions: for IC50: curve of first compound; for viability, T/C: stronger effect = lower value; active means viability on the fitted dose curve at most 10% of control; inactive means the rest
Summary of the method: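 Agents were tested in combination matrices in half-log decrements from a top concentration at or near clinical Cmax (10 microM if undetermined). Targets were multi-cell spheroids of tumour lines plus HUVEC and MSC stromal cells.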

[1] = second compound 0.000949 µM, first compound 0.0316 µM
[2] = second compound 0.000949 µM, first compound 0.1 µM
[3] = second compound 0.000949 µM, first compound 0.316 µM
[4] = second compound 0.000949 µM, first compound 1 µM
[5] = second compound 0.003 µM, first compound 0.0316 µM
[6] = second compound 0.003 µM, first compound 0.1 µM
[7] = second compound 0.003 µM, first compound 0.316 µM
[8] = second compound 0.003 µM, first compound 1 µM
[9] = second compound 0.00949 µM, first compound 0.0316 µM
[10] = second compound 0.00949 µM, first compound 0.1 µM
[11] = second compound 0.00949 µM, first compound 0.316 µM
[12] = second compound 0.00949 µM, first compound 1 µM
[13] = second compound 0.03 µM, first compound 0.0316 µM
[14] = second compound 0.03 µM, first compound 0.1 µM
[15] = second compound 0.03 µM, first compound 0.316 µM
[16] = second compound 0.03 µM, first compound 1 µM
[17] = second compound 0.0949 µM, first compound 0.0316 µM
[18] = second compound 0.0949 µM, first compound 0.1 µM
[19] = second compound 0.0949 µM, first compound 0.316 µM
[20] = second compound 0.0949 µM, first compound 1 µM
[21] = second compound 0.3 µM, first compound 0.0316 µM
[22] = second compound 0.3 µM, first compound 0.1 µM
[23] = second compound 0.3 µM, first compound 0.316 µM
[24] = second compound 0.3 µM, first compound 1 µM
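Further: spheroids exposed to the agents for 7 days before readout.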
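Wherever viability, T/C is given: luminescence viability as percent of DMSO vehicle control wells.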

CC(=O)OC12COC1CC(O)C1(C)C(=O)C(O)C3=C(C)C(OC(=O)C(O)C(NC(=O)OC(C)(C)C)c4ccccc4)CC(O)(C(OC(=O)c4ccccc4)C21)C3(C)C (stereo unspecified) + CCn1c(-c2cccnc2C(C)OC)c2c3cc(ccc31)N1CCOC(CC(NC(=O)C(C(C)C)N(C)C(=O)C3(F)CCN(C(=O)C#CC(C)(C)N(C)C)CC3)C(=O)N3CCCC(N3)C(=O)OCC(C)(C)C2)C1
0.243 µM: IC50 (second compound 0.03 µM)
0.234 µM: IC50 (second compound 0.000949 µM) | IC50 (second compound 0.0949 µM)
0.235 µM: IC50 (second compound 0.003 µM)
0.229 µM: IC50 (second compound 0.3 µM)
inactive: viability, T/C [1] 98.1% | viability, T/C [2] 97.4% | viability, T/C [3] 33.3% | viability, T/C [4] 19.5% | viability, T/C (second compound 0.000949 µM, first compound 3.16 µM) 23.1% | viability, T/C (second compound 0.000949 µM, first compound 10 µM) 38.4% | viability, T/C [5] 102% | viability, T/C [6] 94.6% | viability, T/C [7] 34.7% | viability, T/C [8] 16.6% | viability, T/C (second compound 0.003 µM, first compound 3.16 µM) 24.5% | viability, T/C (second compound 0.003 µM, first compound 10 µM) 38.4% | viability, T/C [9] 101% | viability, T/C [10] 95.4% | viability, T/C [11] 31.1% | viability, T/C [12] 20% | viability, T/C (second compound 0.00949 µM, first compound 3.16 µM) 26% | viability, T/C (second compound 0.00949 µM, first compound 10 µM) 36.1% | viability, T/C [13] 93% | viability, T/C [14] 98% | viability, T/C [15] 36.5% | viability, T/C [16] 17.7% | viability, T/C (second compound 0.03 µM, first compound 3.16 µM) 29.2% | viability, T/C (second compound 0.03 µM, first compound 10 µM) 34.1% | viability, T/C [17] 95.2% | viability, T/C [18] 92.7% | viability, T/C [19] 34.8% | viability, T/C [20] 19% | viability, T/C (second compound 0.0949 µM, first compound 3.16 µM) 24.2% | viability, T/C (second compound 0.0949 µM, first compound 10 µM) 31.7% | viability, T/C [21] 105% | viability, T/C [22] 96.6% | viability, T/C [23] 31.9% | viability, T/C [24] 18.9% | viability, T/C (second compound 0.3 µM, first compound 3.16 µM) 22.5% | viability, T/C (second compound 0.3 µM, first compound 10 µM) 28.3%
0.225 µM: IC50 (second compound 0.00949 µM)

CCc1c2c(nc3ccc(O)cc13)-c1cc3c(c(=O)n1C2)COC(=O)[C@]3(O)CC + CCn1c(-c2cccnc2C(C)OC)c2c3cc(ccc31)N1CCOC(CC(NC(=O)C(C(C)C)N(C)C(=O)C3(F)CCN(C(=O)C#CC(C)(C)N(C)C)CC3)C(=O)N3CCCC(N3)C(=O)OCC(C)(C)C2)C1
0.0561 µM: IC50 (second compound 0.0949 µM)
inactive: viability, T/C (second compound 0.000949 µM, first compound 0.000949 µM) 96.5% | viability, T/C (second compound 0.000949 µM, first compound 0.003 µM) 91.6% | viability, T/C (second compound 0.000949 µM, first compound 0.00949 µM) 83% | viability, T/C (second compound 0.000949 µM, first compound 0.03 µM) 73.6% | viability, T/C (second compound 0.000949 µM, first compound 0.0949 µM) 32.9% | viability, T/C (second compound 0.000949 µM, first compound 0.3 µM) 18% | viability, T/C (second compound 0.003 µM, first compound 0.000949 µM) 112% | viability, T/C (second compound 0.003 µM, first compound 0.003 µM) 91.6% | viability, T/C (second compound 0.003 µM, first compound 0.00949 µM) 82.5% | viability, T/C (second compound 0.003 µM, first compound 0.03 µM) 45.9% | viability, T/C (second compound 0.003 µM, first compound 0.0949 µM) 34% | viability, T/C (second compound 0.003 µM, first compound 0.3 µM) 16.7% | viability, T/C (second compound 0.00949 µM, first compound 0.000949 µM) 101% | viability, T/C (second compound 0.00949 µM, first compound 0.003 µM) 99.2% | viability, T/C (second compound 0.00949 µM, first compound 0.00949 µM) 76.1% | viability, T/C (second compound 0.00949 µM, first compound 0.03 µM) 65% | viability, T/C (second compound 0.00949 µM, first compound 0.0949 µM) 35.5% | viability, T/C (second compound 0.00949 µM, first compound 0.3 µM) 17.8% | viability, T/C (second compound 0.03 µM, first compound 0.000949 µM) 103% | viability, T/C (second compound 0.03 µM, first compound 0.003 µM) 90.8% | viability, T/C (second compound 0.03 µM, first compound 0.00949 µM) 89% | viability, T/C (second compound 0.03 µM, first compound 0.03 µM) 71.8% | viability, T/C (second compound 0.03 µM, first compound 0.0949 µM) 35.8% | viability, T/C (second compound 0.03 µM, first compound 0.3 µM) 15.7% | viability, T/C (second compound 0.0949 µM, first compound 0.000949 µM) 95.1% | viability, T/C (second compound 0.0949 µM, first compound 0.003 µM) 93.1% | viability, T/C (second compound 0.0949 µM, first compound 0.00949 µM) 84.8% | viability, T/C (second compound 0.0949 µM, first compound 0.03 µM) 60.1% | viability, T/C (second compound 0.0949 µM, first compound 0.0949 µM) 40.9% | viability, T/C (second compound 0.0949 µM, first compound 0.3 µM) 16.4% | viability, T/C (second compound 0.3 µM, first compound 0.000949 µM) 90.3% | viability, T/C (second compound 0.3 µM, first compound 0.003 µM) 108% | viability, T/C (second compound 0.3 µM, first compound 0.00949 µM) 90.3% | viability, T/C (second compound 0.3 µM, first compound 0.03 µM) 57.6% | viability, T/C (second compound 0.3 µM, first compound 0.0949 µM) 32.5% | viability, T/C (second compound 0.3 µM, first compound 0.3 µM) 13.3%
0.0513 µM: IC50 (second compound 0.00949 µM)
0.0329 µM: IC50 (second compound 0.003 µM)
0.0442 µM: IC50 (second compound 0.3 µM)
0.0605 µM: IC50 (second compound 0.03 µM)
0.0581 µM: IC50 (second compound 0.000949 µM)

Nc1ccn(C2OC(CO)C(O)C2(F)F)c(=O)n1 (stereo unspecified) + CCn1c(-c2cccnc2C(C)OC)c2c3cc(ccc31)N1CCOC(CC(NC(=O)C(C(C)C)N(C)C(=O)C3(F)CCN(C(=O)C#CC(C)(C)N(C)C)CC3)C(=O)N3CCCC(N3)C(=O)OCC(C)(C)C2)C1
0.153 µM: IC50 (second compound 0.003 µM)
0.189 µM: IC50 (second compound 0.03 µM)
0.132 µM: IC50 (second compound 0.0949 µM)
0.169 µM: IC50 (second compound 0.000949 µM)
inactive: viability, T/C (second compound 0.000949 µM, first compound 0.00316 µM) 100% | viability, T/C (second compound 0.000949 µM, first compound 0.01 µM) 95.5% | viability, T/C [1] 69.5% | viability, T/C [2] 77.3% | viability, T/C [3] 22.2% | viability, T/C [4] 31.3% | viability, T/C (second compound 0.003 µM, first compound 0.00316 µM) 103% | viability, T/C (second compound 0.003 µM, first compound 0.01 µM) 92.9% | viability, T/C [5] 77.6% | viability, T/C [6] 68.5% | viability, T/C [7] 22.9% | viability, T/C [8] 33.2% | viability, T/C (second compound 0.00949 µM, first compound 0.00316 µM) 103% | viability, T/C (second compound 0.00949 µM, first compound 0.01 µM) 93.2% | viability, T/C [9] 73.4% | viability, T/C [10] 77.4% | viability, T/C [11] 19.2% | viability, T/C [12] 25.5% | viability, T/C (second compound 0.03 µM, first compound 0.00316 µM) 111% | viability, T/C (second compound 0.03 µM, first compound 0.01 µM) 83.5% | viability, T/C [13] 86.8% | viability, T/C [14] 82.2% | viability, T/C [15] 20.1% | viability, T/C [16] 27.6% | viability, T/C (second compound 0.0949 µM, first compound 0.00316 µM) 100% | viability, T/C (second compound 0.0949 µM, first compound 0.01 µM) 91.7% | viability, T/C [17] 69.5% | viability, T/C [18] 69.6% | viability, T/C [19] 19.7% | viability, T/C [20] 26.8% | viability, T/C (second compound 0.3 µM, first compound 0.00316 µM) 96.2% | viability, T/C (second compound 0.3 µM, first compound 0.01 µM) 90% | viability, T/C [21] 73.3% | viability, T/C [22] 69.2% | viability, T/C [23] 23.2% | viability, T/C [24] 24.2%
0.163 µM: IC50 (second compound 0.3 µM)
0.177 µM: IC50 (second compound 0.00949 µM)
